In article PMC7939384, “In crystallo screening for proline analog inhibitors of the proline cycle enzyme PYCR1” (The Journal of Biological Chemistry, 2021):

Columns and labels:
[1] = biological target: T1, E. coli PutA PRODH domain (EcPutA86-630) (Escherichia coli, UniProt P09546); assay: PRODH activity assay (o-AB/P5C adduct at 443 nm); format: biochemical; settings: 100 mM NFLP as substrate; 0, 1, 5 or 10 mM NFLP with 100 mM L-proline
T1 construct: Proline Utilization A from E. coli (EcPutA86-630)
T1 sequence (P09546 86-630): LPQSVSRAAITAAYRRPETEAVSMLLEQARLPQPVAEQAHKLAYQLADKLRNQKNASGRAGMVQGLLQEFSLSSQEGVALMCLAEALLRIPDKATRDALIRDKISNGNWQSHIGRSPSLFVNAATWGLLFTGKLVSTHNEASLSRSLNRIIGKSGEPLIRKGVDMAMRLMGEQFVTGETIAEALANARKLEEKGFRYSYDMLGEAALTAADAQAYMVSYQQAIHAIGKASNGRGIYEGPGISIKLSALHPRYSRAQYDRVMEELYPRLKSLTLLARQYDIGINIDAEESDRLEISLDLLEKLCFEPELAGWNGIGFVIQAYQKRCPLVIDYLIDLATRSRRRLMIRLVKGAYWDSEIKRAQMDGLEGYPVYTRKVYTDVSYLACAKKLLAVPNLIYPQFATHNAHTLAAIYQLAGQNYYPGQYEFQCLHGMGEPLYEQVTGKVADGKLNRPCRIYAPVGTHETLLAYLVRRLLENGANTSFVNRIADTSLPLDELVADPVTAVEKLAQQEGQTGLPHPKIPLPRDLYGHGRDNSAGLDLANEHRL
Procedure: The rates have been normalized to the rate obtained in the absence of NFLP.
Assays were performed to test whether NFLP is a substrate or inhibitor of PRODH. Because of challenges in obtaining active recombinant human PRODH, which is an inner mitochondrial membrane protein, these experiments used the PRODH domain of the bifunctional proline catabolic enzyme, Proline Utilization A from E. coli (EcPutA86-630). The active sites of human and bacterial PutA PRODH domains are very highly conserved. For example, all residues that contact proline analog inhibitors in crystal structures of bacterial PRODHs are identically present in human PRODH, as we described previously ([6]). Thus, bacterial PRODHs are considered to be good surrogates for identifying inhibitors of human PRODH. Indeed, the inhibitors discovered using bacterial PRODHs show on-target activity in cancer cells and animal models of cancer ([5], [21]).
PRODH activity was measured in a BioTek Epoch 2 microplate spectrophotometer by monitoring P5C as the adduct formed by the reaction with o-AB at 443 nm. The assays were conducted at 25°C in 20 mM MOPS, pH 7.5, and 10 mM MgCl2 with 4 mM o-AB, 0.15 mM menadione (electron acceptor to re-oxidize the FAD), and 1.3 μM of EcPutA86-630. The enzyme mixture contained EcPutA86-630, o-AB, menadione, and buffer. […]

[2] = biological target: T2, human PYCR1 (Homo sapiens, UniProt P32322); assay: In crystallo screening: electron density as readout for binding (crystal soaking); parameters: includes residues 1–300 of the full-length 319-residue enzyme; inferred from the Ni-NTA purification; made in house; host or cells: Escherichia coli BL21 (DE3); settings: apo crystals soaked with 25–500 mM of the proline analog
T2 sequence (P32322 1-300): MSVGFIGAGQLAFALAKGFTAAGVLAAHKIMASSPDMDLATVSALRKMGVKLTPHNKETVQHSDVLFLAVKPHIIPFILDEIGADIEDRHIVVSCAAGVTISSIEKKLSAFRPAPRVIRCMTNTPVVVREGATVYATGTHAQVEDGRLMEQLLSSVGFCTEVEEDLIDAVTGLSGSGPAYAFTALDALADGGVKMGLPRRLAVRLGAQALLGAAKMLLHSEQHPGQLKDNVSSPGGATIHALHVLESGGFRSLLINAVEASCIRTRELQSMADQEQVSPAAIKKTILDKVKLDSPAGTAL
Procedure: Over two dozen proline analogs (Fig. 2) were screened using electron density from X-ray crystallography as the readout for binding to human PYCR1. […] Because the compounds bind in the P5C/proline site, the mechanism of inhibition was assumed to be competitive with P5C. Therefore, steady-state kinetic measurements were performed with L-P5C as the variable substrate (0-1000 μM) and NADH fixed (175 μM) (Fig. 3). For each compound, the data were fit globally to a competitive inhibition model (Equation 1) to obtain an inhibition constant, Ki.
06594), D,L-thiazolidine-2-carboxylate (Sigma-Aldrich no. 467995), L-thiazolidine-4-carboxylate (Sigma-Aldrich no. T27502), 1,3-thiazolidine-2,4-dicarboxylate (Sigma-Aldrich no. CDS000186), dimethyl 1,3-thiazolidine-2,4-dicarboxylate (Sigma-Aldrich no. […] 287067), L-4-hydroxyproline methyl ester (hydrochloride) (Sigma-Aldrich no. 30681), cis-4-hydroxy-D-proline methyl ester (hydrochloride) (Sigma-Aldrich no. […] 441562), L-(+)-mandelic acid (Sigma-Aldrich no. 63460), sodium-L-lactate (Sigma-Aldrich no. 71718), D-cycloserine (Sigma-Aldrich no. C6880). The proline analogs were added to apo crystals during cryoprotection by soaking the crystals in the reservoir solution supplemented with cryoprotectant (PEG 200 for the PEG 3350 form; glycerol for the NaCl form) and then in the same cryobuffer supplemented with 25–500 mM of the proline analog. Following equilibration, the crystals were harvested and rapidly plunged into liquid nitrogen.
The complex of PYCR1 with THFA was obtained by soaking a C2 crystal (NaCl form) for 15 min in a cryo-buffer consisting of the reservoir solution (3 M NaCl and 0.1 M HEPES at pH 7.5–8.0) supplemented with 30% glycerol and 50 mM THFA, followed by flash-cooling in liquid nitrogen. Crystals of the NFLP complex were prepared by soaking P2_12_12 crystals in the reservoir solution (250 mM Li2SO4, 19% (w/v) PEG 3350, 0.1 M HEPES, pH 7.5) supplemented with 20% (v/v) PEG 200 and 100 mM NFLP. The complexes with L-T2C and L-T4C were prepared similarly, except the Li2SO4 concentration was reduced to 25 mM and 50 mM of either L-T4C or D,L-T2C was included.

O=CN1CCC[C@H]1C(=O)O [NFLP, N-formyl L-proline]
substrate or inhibitor of bacterial PRODH (in words) [1]: neither a substrate nor an inhibitor
electron density evidence for binding (in words) [2]: Electron density evidence for binding was observed
